Measurements as given in the NIST ThermoML archive (doi:10.1021/je900048r).

Test: xn = mol fraction of the nth substance listed
Conditions: Liquid, Other PVT measurement

CCCCn1cc[n+](C)c1.F[B-](F)(F)F [1-butyl-3-methylimidazolium tetrafluoroborate] + CCO
mass density [kg/m3]
Conditions | x1 = 0.2 | x1 = 0.3 | x1 = 0.3999 | x1 = 0.4998 | x1 = 0.6 | x1 = 0.6996 | x1 = 0.8001 | x1 = 0.8998 | x1 = 1
313.15 K, 200 kPa | 965 | 1022 | 1071 | 1098 | 1121 | 1142 | 1158 | 1173 | 1185
313.15 K, 600 kPa | 966 | 1023 | 1072 | 1098 | 1122 | 1142 | 1158 | 1174 | 1186
313.15 K, 1000 kPa | 966 | 1023 | 1072 | 1098 | 1122 | 1143 | 1159 | 1174 | 1186
313.15 K, 1400 kPa | 966 | 1024 | 1072 | 1099 | 1123 | 1144 | 1159 | 1174 | 1186
313.15 K, 1800 kPa | 967 | 1024 | 1073 | 1099 | 1123 | 1144 | 1160 | 1174 | 1187
313.15 K, 2000 kPa | 967 | 1024 | 1073 | 1102 | 1123 | 1144 | 1160 | 1175 | 1187
353.15 K, 200 kPa | 935 | 993 | 1042 | 1070 | 1094 | 1116 | 1131 | 1147 | 1159
353.15 K, 600 kPa | 935 | 993 | 1042 | 1071 | 1094 | 1116 | 1132 | 1147 | 1160
353.15 K, 1000 kPa | 935 | 993 | 1043 | 1071 | 1095 | 1116 | 1132 | 1147 | 1160
353.15 K, 1400 kPa | 936 | 994 | 1043 | 1071 | 1095 | 1116 | 1133 | 1147 | 1160
353.15 K, 1800 kPa | 936 | 994 | 1043 | 1071 | 1095 | 1116 | 1133 | 1148 | 1161
353.15 K, 2000 kPa | 937 | 994 | 1043 | 1072 | 1096 | 1117 | 1133 | 1148 | 1161
393.15 K, 600 kPa | 904 | 964 | 1014 | 1042 | 1067 | 1090 | 1106 | 1122 | 1135
393.15 K, 1000 kPa | 904 | 965 | 1014 | 1043 | 1068 | 1090 | 1106 | 1122 | 1135
393.15 K, 1400 kPa | 905 | 965 | 1015 | 1043 | 1068 | 1090 | 1107 | 1122 | 1135
393.15 K, 1800 kPa | 905 | 965 | 1015 | 1044 | 1069 | 1091 | 1107 | 1123 | 1136
393.15 K, 2000 kPa | 905 | 966 | 1015 | 1044 | 1069 | 1091 | 1108 | 1123 | 1136
433.15 K, 1400 kPa | 871 | 935 | 987 | 1016 | 1041 | 1065 | 1081 | 1097 | 1112
433.15 K, 1800 kPa | 872 | 935 | 987 | 1017 | 1042 | 1066 | 1082 | 1097 | 1113
433.15 K, 2000 kPa | 872 | 935 | 987 | 1017 | 1042 | 1066 | 1082 | 1098 | 1113

CCCCn1cc[n+](C)c1.F[B-](F)(F)F [1-butyl-3-methylimidazolium tetrafluoroborate] + c1ccccc1
mass density [kg/m3]
Conditions | x1 = 0.5 | x1 = 0.5999 | x1 = 0.7001 | x1 = 0.8 | x1 = 0.8999 | x1 = 1
313.15 K, 200 kPa | 1111 | 1129 | 1145 | 1158 | 1172 | 1185
313.15 K, 600 kPa | 1111 | 1130 | 1145 | 1158 | 1172 | 1186
313.15 K, 1000 kPa | 1111 | 1130 | 1146 | 1158 | 1173 | 1186
313.15 K, 1400 kPa | 1111 | 1131 | 1146 | 1159 | 1173 | 1186
313.15 K, 1800 kPa | 1111 | 1131 | 1147 | 1159 | 1173 | 1187
313.15 K, 2000 kPa | 1111 | 1132 | 1147 | 1159 | 1173 | 1187
353.15 K, 200 kPa | 1082 | 1102 | 1118 | 1131 | 1145 | 1159
353.15 K, 600 kPa | 1082 | 1103 | 1118 | 1131 | 1145 | 1160
353.15 K, 1000 kPa | 1083 | 1103 | 1118 | 1131 | 1145 | 1160
353.15 K, 1400 kPa | 1083 | 1103 | 1118 | 1132 | 1146 | 1160
353.15 K, 1800 kPa | 1084 | 1104 | 1119 | 1132 | 1146 | 1161
353.15 K, 2000 kPa | 1084 | 1104 | 1119 | 1132 | 1146 | 1161
393.15 K, 600 kPa | 1055 | 1076 | 1092 | 1106 | 1120 | 1135
393.15 K, 1000 kPa | 1055 | 1076 | 1092 | 1106 | 1120 | 1135
393.15 K, 1400 kPa | 1055 | 1077 | 1092 | 1106 | 1120 | 1135
393.15 K, 1800 kPa | 1056 | 1077 | 1092 | 1106 | 1121 | 1136
393.15 K, 2000 kPa | 1056 | 1078 | 1093 | 1106 | 1121 | 1136
433.15 K, 1400 kPa | 1028 | 1050 | 1066 | 1080 | 1096 | 1112
433.15 K, 1800 kPa | 1029 | 1050 | 1067 | 1081 | 1096 | 1113
433.15 K, 2000 kPa | 1029 | 1051 | 1067 | 1081 | 1096 | 1113
